According to patent publication US20260078130A1, “NAMPT MODULATORS, PREPARATIONS, AND USES THEREOF” (SIRONAX LTD., priority 2022, published 2026):
pEC50: −log10 of the molar value. Read-outs that look alike come from different tables or passages of the source.

What was measured:
[1] = target: T1, human enzyme NAMPT (full length) (Homo sapiens, UniProt P43490); test: NMN fluorescence biochemical assay (stimulation of NMN synthesis by NAMPT); settings: for pEC50: concentration giving half-maximal activation, read-out: Enzymatic EC50; for Enzymatic Emax: fold change of maximal activation compared to DMSO
T1 construct: human enzyme NAMPT (full length)
Procedure, shortened: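 Full-length human NAMPT (100 nM) was preincubated 15 min at 37 °C with compound in 50 mM Tris-HCl pH 7.5, 10 mM MgCl2, 2 mM DTT, then reacted 1 h at 37 °C with 50 μM NAM, 100 μM PRPP, 4 mM ATP (stated solution concentrations). NMN was derivatised with acetophenone/KOH then formic acid and read at Ex/Em 382/445 nm; EC50 and Emax (fold over DMSO) reported.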

[2] = system: endogenous NAMPT in U2OS cells; test: Cellular NAD+ modulation assay (NAD/NADH-Glo, U2OS cells); format: cell-based; settings: Homo sapiens; for maximal fold induction: read-out: Cellular Emax
Method: Certain compounds described herein were also assayed for their ability to stimulate the endogenous NAMPT in a native cellular environment in a cellular NAD^+ modulation assay. U2OS cells were grown in McCoy's 5A medium with 10% fetal bovine serum, in a humidified incubator with an atmosphere of 95% air and 5% CO2 at 37° C. The assays were initiated by plating 30 μL of U2OS cells in a culture medium with 10% fetal bovine serum, at a density of 3000 cells per well in a Corning® 384-well White/Clear Bottom Polystyrene Microplate. The plates were incubated in 37T incubators for a period of 16 hours. Test compounds with a series of concentrations in DMSO were added to the plates in a volume of 150 nL using Echo Liquid handlers. The plates are then incubated for 24 hours. The medium was removed from the wells, then 10 μL PBS was added to each well. To each well of cells in 10 μL of PBS, 10 μL of base solution with 1% DTAB was added. The plate was briefly mixed on a plate shaker to ensure homogeneity and cell lysis (5 mins). 10p L of 0.4N HCl was added per well. The plate was coved, and all samples were incubated for 15 minutes at 60° C. Then the plate was equilibrated for 10 minutes at room temperature. 10 μL of 0.5M Trizma® base was added to each well of acid-treated cells to neutralize the acid. Finally, 30 μL of NAD/NADH-Glo™ Detection Reagent was added. The plate was gently shaken to mix the samples. The plate was incubated for 40 minutes at room temperature. Luminescence was recorded using a luminometer. The potency measurements for the test compounds were quantified and represented as EC50 (concentration of a compound that gives half-maximal activation) and Emax (fold change of a compound's maximal activation compared to DMSO).

[3] = NMN fluorescence assay, purified human NAMPT 100 nM
[4] = 24 hours incubation, cellular NAD+
[5] = NMN synthesis by purified human NAMPT (100 nM)
[6] = 24 hours incubation with compound

T1 sequence (P43490 whole entry): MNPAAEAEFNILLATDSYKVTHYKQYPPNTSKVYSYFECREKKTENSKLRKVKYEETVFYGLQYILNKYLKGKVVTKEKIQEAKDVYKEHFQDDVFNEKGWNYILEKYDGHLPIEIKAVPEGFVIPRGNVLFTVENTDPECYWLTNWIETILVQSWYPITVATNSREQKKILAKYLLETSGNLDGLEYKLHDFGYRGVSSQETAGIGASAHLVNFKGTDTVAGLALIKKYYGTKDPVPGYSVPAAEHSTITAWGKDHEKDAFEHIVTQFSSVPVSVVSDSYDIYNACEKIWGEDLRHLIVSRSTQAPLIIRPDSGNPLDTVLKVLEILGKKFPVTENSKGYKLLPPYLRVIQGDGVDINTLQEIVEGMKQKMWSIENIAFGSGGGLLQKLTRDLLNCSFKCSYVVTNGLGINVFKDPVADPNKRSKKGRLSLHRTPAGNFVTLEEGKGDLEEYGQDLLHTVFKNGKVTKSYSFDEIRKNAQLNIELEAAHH

SMILES | pEC50 [1, 3] | Enzymatic Emax [1] | pEC50 [2, 4] | maximal fold induction [2, 4] | pEC50 [1, 5] | pEC50 [2, 6] | maximal fold induction [2, 6]
Cc1ncnc(C#N)c1CC1c2ccccc2C(=O)N1Cc1ccc2[nH]nnc2c1 (stereo not shown) [Compound 384, 5-((2-((1H-benzo[d][1,2,3]triazol-5-yl)methyl)-3-oxoisoindolin-1-yl)methyl)-6-methylpyrimidine-4-carbonitrile] | > 6.30 | B (3≥B>2) | > 6.30 | > 1.5 | – | – | –
Cc1c(C#N)cccc1CC1c2ccccc2C(=O)N1Cc1ccc2[nH]c(=O)oc2c1 (stereo not shown) [Compound 174, 2-methyl-3-((3-oxo-2-((2-oxo-2,3-dihydrobenzo[d]oxazol-6-yl)methyl)isoindolin-1-yl)methyl)benzonitrile] | – | B (3≥B>2) | – | – | > 6.30 | 5.30 to 6.30 | > 1.5
CC1c2ccccc2C(=O)N1Cc1ccc(NC(=O)NCc2cn[nH]c2)cc1 (stereo not shown) [Compound 292, 1-((1H-pyrazol-4-yl)methyl)-3-(4-((1-methyl-3-oxoisoindolin-2-yl)methyl)phenyl)urea] | – | C (2≥C) | – | – | > 6.30 | > 6.30 | ≤ 1.2
Cc1ccnc(C#N)c1CC1c2ccccc2C(=O)N1CC1CC2(CNC(=O)O2)C1 (stereo not shown) [Compound 308, 4-methyl-3-((3-oxo-2-((6-oxo-5-oxa-7-azaspiro[3.4]octan-2-yl)methyl)isoindolin-1-yl)methyl)picolinonitrile] | – | B (3≥B>2) | – | – | > 6.30 | > 6.30 | > 1.5
Cn1ncc(Cl)c1CC1c2cc(C3CN(C(=O)OC(C)(C)C)C3)ccc2C(=O)N1CC1CC2(CNC(=O)O2)C1 (stereo not shown) [Compound 514, tert-butyl 3-(3-((4-chloro-1-methyl-1H-pyrazol-5-yl)methyl)-1-oxo-2-((6-oxo-5-oxa-7-azaspiro[3.4]octan-2-yl)methyl)isoindolin-5-yl)azetidine-1-carboxylate] | 5.30 to 6.30 | A (A>3) | 5.30 to 6.30 | > 1.5 | – | – | –
CC(C)c1ccc2c(c1)C(=O)N(Cc1ccc(O)cc1)C2=O [Compound 26, 2-(4-hydroxybenzyl)-5-isopropylisoindoline-1,3-dione] | – | A (A>3) | – | – | 5.30 to 6.30 | > 6.30 | ≤ 1.2
Cn1ncc(Cl)c1CC1c2cc(CN3CCOCC3)ccc2C(=O)N1Cc1ccc2[nH]nnc2c1 (stereo not shown) [Compound 325, 2-((1H-benzo[d][1,2,3]triazol-5-yl)methyl)-3-((4-chloro-1-methyl-1H-pyrazol-5-yl)methyl)-5-(morpholinomethyl)isoindolin-1-one] | > 6.30 | A (A>3) | > 6.30 | > 1.5 | – | – | –
Cn1c2ccccc2c(=O)n1Cc1ccc2[nH]nnc2c1 [Compound 301, 2-((1H-benzo[d][1,2,3]triazol-5-yl)methyl)-1-methyl-1,2-dihydro-3H-indazol-3-one] | – | C (2≥C) | – | – | ≤ 5.30 | 4.30 to 5.30 | 1.2 to 1.5
COC(=O)Nc1ccc(CN2Cc3ccccc3C2=O)cc1 [Compound 294, methyl (4-((1-oxoisoindolin-2-yl)methyl)phenyl)carbamate] | – | C (2≥C) | – | – | ≤ 5.30 | 4.30 to 5.30 | > 1.5
CN(C)CCOc1nn(C)c(CC2c3ccccc3C(=O)N2CC2CC3(CNC(=O)O3)C2)c1Cl (stereo not shown) [Compound 523, 2-((1-((4-chloro-3-(2-(dimethylamino)ethoxy)-1-methyl-1H-pyrazol-5-yl)methyl)-3-oxoisoindolin-2-yl)methyl)-5-oxa-7-azaspiro[3.4]octan-6-one] | > 6.30 | C (2≥C) | 5.30 to 6.30 | > 1.5 | – | – | –
Cn1ncc(Cl)c1CC1c2cc(Cl)ncc2C(=O)N1CC1CC2(CNC(=O)O2)C1 (stereo not shown) [Compound 524, 2-((6-chloro-1-((4-chloro-1-methyl-1H-pyrazol-5-yl)methyl)-3-oxo-1,3-dihydro-2H-pyrrolo[3,4-c]pyridin-2-yl)methyl)-5-oxa-7-azaspiro[3.4]octan-6-one] | ≤ 5.30 | C (2≥C) | 5.30 to 6.30 | > 1.5 | – | – | –
[2H]C([2H])(c1c(Cl)cnn1C)C1c2ccccc2C(C)(C)N1CC1CC2(CNC(=O)O2)C1 (stereo not shown) [Compound 616, 2-((3-((4-chloro-1-methyl-1H-pyrazol-5-yl)methyl-d2)-1,1-dimethylisoindolin-2-yl)methyl)-5-oxa-7-azaspiro[3.4]octan-6-one] | 5.30 to 6.30 | A (A>3) | > 6.30 | 1.2 to 1.5 | – | – | –
COc1ccc(CN2C(=O)c3ccccc3C2Cc2c(Cl)ccn(C)c2=O)cn1 (stereo not shown) [Compound 625, 3-((4-chloro-1-methyl-2-oxo-1,2-dihydropyridin-3-yl)methyl)-2-((6-methoxypyridin-3-yl)methyl)isoindolin-1-one] | 5.30 to 6.30 | A (A>3) | 5.30 to 6.30 | > 1.5 | – | – | –
Cn1nnc(Cl)c1CC1c2ccccc2C(=O)N1CC1CC2(CNC(=O)O2)C1 (stereo not shown) [Compound 489, 2-((1-((4-chloro-1-methyl-1H-1,2,3-triazol-5-yl)methyl)-3-oxoisoindolin-2-yl)methyl)-5-oxa-7-azaspiro[3.4]octan-6-one] | 5.30 to 6.30 | B (3≥B>2) | 5.30 to 6.30 | > 1.5 | – | – | –
Cn1ncc(Cl)c1CC1c2c(F)cccc2C(=O)N1Cc1ccc2[nH]nnc2c1 (stereo not shown) [Compound 338, 2-((1H-benzo[d][1,2,3]triazol-5-yl)methyl)-3-((4-chloro-1-methyl-1H-pyrazol-5-yl)methyl)-4-fluoroisoindolin-1-one] | > 6.30 | A (A>3) | > 6.30 | > 1.5 | – | – | –
CC1c2cc(-c3cnco3)ccc2C(=O)N1Cc1ccc2[nH]c(=O)oc2c1 (single isomer, unassigned) [Compound 162] | – | B (3≥B>2) | – | – | 5.30 to 6.30 | 4.30 to 5.30 | > 1.5
Cn1ncc(Cl)c1CC1c2ccccc2C(=O)N1C/C(F)=C/c1nn[nH]c1F (stereo not shown) [Compound 601, (Z)-3-((4-chloro-1-methyl-1H-pyrazol-5-yl)methyl)-2-(2-fluoro-3-(5-fluoro-1H-1,2,3-triazol-4-yl)allyl)isoindolin-1-one] | 5.30 to 6.30 | A (A>3) | > 6.30 | 1.2 to 1.5 | – | – | –
O=C1c2ccccc2C(Cc2ccccc2C(F)(F)F)N1Cc1ccc2[nH]c(=O)oc2c1 (stereo not shown) [Compound 134, 6-((1-oxo-3-(2-(trifluoromethyl)benzyl)isoindolin-2-yl)methyl)benzo[d]oxazol-2(3H)-one] | – | A (A>3) | – | – | > 6.30 | 5.30 to 6.30 | > 1.5
O=C1c2ccccc2C(Cc2nnc(Cl)cc2Cl)N1Cc1ccc2[nH]c(=O)oc2c1 (stereo not shown) [Compound 227, 6-((1-((4,6-dichloropyridazin-3-yl)methyl)-3-oxoisoindolin-2-yl)methyl)benzo[d]oxazol-2(3H)-one] | – | A (A>3) | – | – | 5.30 to 6.30 | 5.30 to 6.30 | > 1.5
O=C1c2ccccc2C(Cc2ccncc2)N1Cc1ccc2[nH]c(=O)oc2c1 (stereo not shown) [Compound 130, 6-((1-oxo-3-(pyridin-4-ylmethyl)isoindolin-2-yl)methyl)benzo[d]oxazol-2(3H)-one] | – | B (3≥B>2) | – | – | ≤ 5.30 | 5.30 to 6.30 | > 1.5
Cc1ocnc1CC1c2ccccc2C(=O)N1Cc1ccc2[nH]c(=O)oc2c1 (stereo not shown) [Compound 231, 6-((1-((5-methyloxazol-4-yl)methyl)-3-oxoisoindolin-2-yl)methyl)benzo[d]oxazol-2(3H)-one] | – | A (A>3) | – | – | ≤ 5.30 | 5.30 to 6.30 | > 1.5
O=C1c2ccccc2C(Cc2nc(Br)sc2Cl)N1Cc1ccc2[nH]nnc2c1 (stereo not shown) [Compound 448, 2-((1H-benzo[d][1,2,3]triazol-5-yl)methyl)-3-((2-bromo-5-chlorothiazol-4-yl)methyl)isoindolin-1-one] | > 6.30 | A (A>3) | 5.30 to 6.30 | > 1.5 | – | – | –
